Results: paper doi:10.1101/2024.08.25.609621 (bioRxiv, 2024)
Where two headings read alike, the source gives them in different places.

Legend:
[1] = target: SARS-CoV-2 NSP3 macrodomain (Mac1) (Severe acute respiratory syndrome coronavirus 2, UniProt P0DTD1); experiment: biochemical; type: binding; settings: for Ligand efficiency (binding enery per heavy atom): from SARS CoV-2 macrodomain HTRF assay
[2] = target: SARS-CoV-2 NSP3 macrodomain (Mac1), P43 crystal form (Severe acute respiratory syndrome coronavirus 2, UniProt P0DTD1); type: binding; settings: for Number of isomers bound: ligand modeling in Mac1 crystal structure; for Isomers modeled: stereoisomer(s) modeled in Mac1 crystal structure
[3] = dose-response, read-out: SARS CoV-2 macrodomain HTRF assay: IC50
[4] = dose-response, read-out: SARS CoV-2 macrodomain HTRF assay: Ki
[5] = preliminary screen, compound at 200 μM, mean of 3-4 technical replicates, read-out: % competition in HTRF assay

Row | Compound | IC50 [1, 3] [µM] | Ki [1, 4] [µM] | Ligand efficiency (binding enery per heavy atom) [1] | Number of isomers bound [2] | Isomers modeled [2] | fold less potent compared to the AVI-3761 parent ([1]; HTRF IC50) | IC50 ([1]; read-out: HTRF IC50) [µM] | inhibition at 200 µM ([1]; Single dose, concentration 200 μM, read-out: Average % competition) [%] | inhibition at 200 µM [1, 5] [%] | inhibition at 200 µM ([1]; Single dose, concentration 200 μM, read-out: SARS CoV-2 macrodomain HTRF assay: Average % competition) [%] | IC50 ([1]; SARS CoV-2 macrodomain HTRF assay, dose-response, read-out: IC50) [µM] | Ki ([1]; SARS CoV-2 macrodomain HTRF assay, dose-response, read-out: Ki) [µM]
1 | CC1CCCC(O)(CNc2ncnc3[nH]ccc23)C1 (centres unmarked) [AVI-4307] | 40 | 37 | 0.32 | 1 |  |  |  |  |  |  |  | 
2 | OC1(CNc2ncnc3[nH]ccc23)CCC(F)(F)CC1 [AVI-4308] | 140 | 130 | 0.27 | 1 | achiral |  |  |  |  |  |  | 
3 | OC1(CNc2ncnc3[nH]ccc23)CCCC(C(F)(F)F)C1 (centres unmarked) [AVI-4309] | 150 | 140 | 0.24 | 1 |  |  |  |  |  |  |  | 
4 | OC1(CNc2ncnc3[nH]ccc23)CCCOC1 (centres unmarked) [AVI-4311] | 170 | 160 | 0.29 | 1 |  |  |  |  |  |  |  | 
5 | CC1CCC(O)(CNc2ncnc3[nH]ccc23)CC1 (centres unmarked) [AVI-4312] | 21 | 20 | 0.34 | 1 | rr |  |  |  |  |  |  | 
6 | OC1(CNc2ncnc3[nH]ccc23)COC2CC1C2 (centres unmarked) [AVI-4313] | 130 | 120 | 0.29 | 1 |  |  |  |  |  |  |  | 
7 | OC1(CNc2ncnc3[nH]ccc23)CCOCC1 [AVI-4314] | 230 | 210 | 0.28 | 1 | achiral |  |  |  |  |  |  | 
8 | O=S1(=O)CCCC(O)(CNc2ncnc3[nH]ccc23)C1 (centres unmarked) [AVI-4317] |  | 100 | 0.28 | 1 |  | ~ 4 fold | 110 |  |  |  |  | 
9 | CN(CC1(O)CCOCC1)c1ncnc2[nH]ccc12 [AVI-4318] | 71 | 66 | 0.30 | 1 | achiral |  |  |  |  |  |  | 
10 | OC1(CNc2ncnc3[nH]ccc23)CCSCC1 [AVI-4319] | 170 | 160 | 0.29 | 1 | achiral |  |  |  |  |  |  | 
11 | OC1(CNc2ncnc3[nH]ccc23)CC2CCC1CC2 (centres unmarked) [AVI-4320] | 83 | 77 | 0.28 | 1 |  |  |  |  |  |  |  | 
12 | OC1(CNc2ncnc3[nH]ccc23)CCCSC1 (centres unmarked) [AVI-4322] | 53 | 49 | 0.33 | 1 |  |  |  |  |  |  |  | 
13 | Cc1c[nH]c2ncnc(NCC3(O)CCC(C)CC3)c12 (centres unmarked) [AVI-4331] | 210 |  | 0.26 | 1 | rr |  |  |  |  |  |  | 
14 | CC(O)C(C)Nc1ncnc2[nH]ccc12 (centres unmarked) [AVI-5158] |  |  |  | 2 | RS,RR |  |  | 32 | 32 |  |  | 
15 | CC(C)C1CCCN1c1ncnc2[nH]ccc12 (centres unmarked) [AVI-5216] |  |  |  | 1 |  |  |  |  | 35 | 35 |  | 
16 | CC(C)(CO)Nc1ncnc2[nH]ccc12 [AVI-5266] |  |  |  | 1 | achiral |  | 110 |  |  |  | 32 | 30
17 | CC1(C)CCN(c2ncnc3[nH]ccc23)C(CO)C1 (centres unmarked) [AVI-5994] | 68 | 63 | 0.31 | 1 | S,S |  |  |  |  |  |  | 
18 | O[C@H]1CC[C@H]2CCN(c3ncnc4[nH]ccc34)[C@H]21 [AVI-5997] | 37 | 34 | 0.34 | 1 | SSR |  |  |  |  |  |  | 
19 | OCC1C=CCCN1c1ncnc2[nH]ccc12 (centres unmarked) [AVI-5998] | 160 | 150 | 0.31 | 1 |  |  |  |  |  |  |  | 
20 | OCC1CC=CCN1c1ncnc2[nH]ccc12 (centres unmarked) [AVI-6002] | 52 | 48 | 0.35 | 1 |  |  |  |  |  |  |  | 
21 | OC1(CNc2ncnc3[nH]ccc23)CCCCC1 [AVI-6217] | 42 | 39 | 0.34 | 1 | achiral |  |  |  |  |  |  | 
22 | OC1CCC(O)(CNc2ncnc3[nH]ccc23)CC1 (centres unmarked) [AVI-6220] | 260 | 240 | 0.26 | 1 | rr,rr |  |  |  |  |  |  | 
